“And” between values parts separate entries of the source, which are not always exact repeats. Equal entries are not always repeated.
Tests used:
[1] = Determination of photochemical properties of saponified dyes; assay type: physicochemical; conditions: after saponification, 150 mM KCl, 10 mM HEPES, 50 μM EDTA, pH = 7.22; for ε (molar absorptivity): at λmax
Experimental: Evaluation of the photochemical properties of the active Thallium sensing species was accomplished by saponifying 10 μL of each pro-dye stock solution by incubating with 90 μL of 0.1 M KOH for 20 min at 37° C. with the exception of 8b which was treated with 1% NH4OH for 1 h at 37° C. The saponified compounds were diluted into 150 mM KCl buffered with 10 mM HEPES, pH=7.22 with 50 μM of EDTA. All photochemical measurements were taken in this buffer. Absorbance and fluorescence emission spectra were recorded on a Molecular Devices Spectromax M5 using polystyrene cuvettes with path length=1 cm at 23° C. Molar absorptivities are reported for λmax. The emission wavelengths monitored for recording excitation spectra, the excitation wavelengths used for recording emission spectra, and the corresponding emission cutoff filters used are listed in Table 2 below, and representative excitation and emission spectra are shown in FIG. 7.
To determine the in vitro photochemical properties of the active Tl^+ sensing species, 8a-m were treated with base to remove the acetoxymethyl esters and aryl acetate and then diluted into 10 mM HEPES buffered 150 mM KCl with 50 μM EDTA at pH=7.22.

[2] = system: HEK-293 cells co-expressing GIRK1 and GIRK2; assay: Fold increase in dye fluorescence in Tl+ flux assay with ML297 concentration series; assay type: cell-based
From the text: ML297 concentration response curves—In general, all concentration-response data were collected on a WaveFront Biosciences Panoptic 2. Thallos treated cells were imaged using 482/35 nm excitation and 536/40 nm emission filters. 8c treated cells were imaged using 529/24 nm excitation and 565/24 nm emission filters (unless otherwise noted). FluxOR Red treated cells were imaged using 544/24 nm excitation and 593/40 nm emission filters (all filters purchased from Semrock, Rochester, N.Y.). FluxOR Red reagent was prepared according to the manufacturer's procedure. 5 μM of 8c was used for dye loading for all conditions.
FluxOR Red procedure with background suppressor. The manufacturer's procedure was followed with the exceptions that the dye loading solution was replaced with 20 μL of assay buffer, solutions of ML297 were prepared in assay buffer plus background suppressor, 20 μL of compound solution was added and 10 μL stimulus buffer (basal) was added according to the general assay protocol described above.
FluxOR Red procedure without background suppressor. The FluxOR Red manufacturer's procedure was followed except the background suppressor was replaced by H2O in all buffers.
Bicarbonate buffer with Allura Red AC. […]
The fluorescence intensity values of the first 6 time points for each well were averaged and the fluorescence intensity for all time points in the well was divided by this value to provide F/Fo for each time point. The average F/Fo of the vehicle control was then subtracted from each curve and the normalized, control subtracted fluorescence intensity value was sampled at a time point several seconds after Tl^+ addition. […] Fold increases in fluorescence reported in the main paper were calculated by averaging F/Fo between 100 and 110 s after Tl^+ addition. […]
The performance of 8c was evaluated in a Tl^+ flux assay to generate a concentration response curve (CRC) of the GIRK activator ML297. […] Normalized, control subtracted fluorescence intensity values were sampled along the curves following Tl^+ addition at each concentration and a CRC was fit using GraphPad Prism (FIG. 3B).

[3] = system: HEK-293 cells co-expressing GIRK1 and GIRK2; conditions: dye loading 1 h, 1 mM Tl^+ stimulus; for on/off (Tl^+ flux assay), maximum fold increase in fluorescence after Tl^+ addition: 10 μM ML297, 2 mM Allura Red AC, n = 6
Experimental: HEK-293 cells co-expressing GIRK1 and GIRK2 were cultured to 80% confluence in a T75 flask (Techno Plastic Products, Trasadingen, CH) at 37° C. and 5% CO2 in medium consisting of Minimal Essential Medium (Cellgro, Manassas, Va.) containing 1× Glutagro (Cellgro, Manassas, Va.) and 10% (v/v) heat-inactivated fetal bovine serum (Life Technologies, Carlsbad, Calif.). The cells were dislodged by treatment with TrypLE (Gibco/Life Technologies, Carlsbad, Calif.), diluted in medium, and plated on clear bottomed, black-walled, amine coated 384 well plates (BD Biosciences, Billerica, Mass.) at a density ˜20,000 cells per well. The plated cells were incubated overnight at 37° C. and 5% CO2 and used for the assay the next day.
Dye loading solutions of Thallos were prepared by dissolving a 25 μg aliquot in 30 μL of 6.7% Pluoronic F-127 (w/v) in DMSO and diluting the resulting solution 1:1000 into assay buffer. Culture medium was removed and replaced with 20 μL of dye loading buffer and incubated in the dark at room temperature for 1 h.
Assay—Assays were conducted on a WaveFront Biosciences Panoptic 1 or 2 (WaveFront Biosciences, Franklin, Tenn.) as indicated. Dye loading solutions were removed and replaced with assay buffer immediately before imaging unless otherwise noted. 10 s following commencement of plate imaging, 20 μL of compound at 2.5× concentration in assay buffer was added and incubated for 120 s at which point 10 μL of Tl^+ at 5× concentration in stimulus buffer (125 mM NaHCO3, 1.8 mM CaSO4, 1 mM MgSO4, 5 mM glucose, 10 mM HEPES, pH 7.4, and T12SO4), and images taken for the following 120 s.
1 mM of T12SO4 (final concentration) was used for stimulus. Assay and stimulus buffers were supplemented with 2 mM of Allura Red AC. […] On/off ratios were calculated by dividing the fluorescence intensity after saturation following Tl^+ addition by the fluorescence intensity immediately after compound addition (n=6).

[4] = Compound storage as DMSO stock solutions; assay type: physicochemical; conditions: 10 mM stock solutions in DMSO at −20° C.
Experimental: Compounds 8a-m were dissolved in DMSO and stored as 10 mM stock solutions at −20° C. […] To prevent this, dry aliquots of 8a were prepared and dissolved in DMSO immediately before use.

Row | SMILES | λem (fluorescence emission maximum) [1] [nm] | λmax (absorption maximum) [1] [nm] | ε (molar absorptivity) [1] [M⁻¹ cm⁻¹] | fold increase in fluorescence at the highest ML297 concentration ([2]; FluxOR Red kit procedure with background suppressor, 10 μM ML297, F/Fo 100-110 s after Tl^+) [fold] | fold increase in fluorescence at the highest ML297 concentration ([2]; FluxOR Red kit procedure without background suppressor) [fold] | fold increase in fluorescence ([2]; bicarbonate stimulus buffer, 500 μM Tl^+, no-wash, 1 mM Allura Red AC) [fold] | on/off (Tl^+ flux assay), maximum fold increase in fluorescence after Tl^+ addition [3] | stability on storage [4] | fluorescence and response to Tl^+ in cells (in words) [3]
1 | COc1cc(NC(=O)c2ccc3c(c2)C(=O)OC32c3ccc(OC(C)=O)cc3Oc3cc(N(C)C)ccc32)ccc1N(CC(=O)OCOC(C)=O)CC(=O)OCOC(C)=O (stereo not drawn) [Compound 8c, bis(acetoxymethyl) 2,2′-((4-(3′-acetoxy-6′-(dimethylamino)-3-oxo-3H-spiro[isobenzofuran-1,9′-xanthene]-5-carboxamido)-2-methoxyphenyl)azanediyl)diacetate] | 551 | 521 | 56000 | 3.09±0.004 | 2.87±0.004 | 3.40±0.009 | 4.21 fold and 4.21 ± 0.04 fold |  | 
2 | COc1cc(NC(=O)c2ccc3c(c2)C(=O)OC32c3ccc(N)cc3Oc3cc(OC(C)=O)ccc32)ccc1N(CC(=O)OCOC(C)=O)CC(=O)OCOC(C)=O (stereo not drawn) [Compound 8a, bis(acetoxymethyl) 2,2′-((4-(3′-acetoxy-6′-amino-3-oxo-3H-spiro[isobenzofuran-1,9′-xanthen]-5-ylcarboxamido)-2-methoxyphenyl)azanediyl)diacetate] | 520 | 496 | 57000 |  |  |  | 3.02 ± 0.08 fold | appeared to undergo transacetylation | 
3 | CCCCN(CCCC)c1ccc2c(c1)Oc1cc(OC(C)=O)ccc1C21OC(=O)c2cc(C(=O)Nc3ccc(N(CC(=O)OCOC(C)=O)CC(=O)OCOC(C)=O)c(OC)c3)ccc21 (stereo not drawn) [Compound 8f, bis(acetoxymethyl) 2,2′-((4-(3′-acetoxy-6′-(dibutylamino)-3-oxo-3H-spiro[isobenzofuran-1,9′-xanthen]-5-ylcarboxamido)-2-methoxyphenyl)azanediyl)diacetate] | 556 | 528 | 58000 |  |  |  | 1.52 ± 0.01 fold |  | 
4 | CCCCNc1ccc2c(c1)Oc1cc(OC(C)=O)ccc1C21OC(=O)c2cc(C(=O)Nc3ccc(N(CC(=O)OCOC(C)=O)CC(=O)OCOC(C)=O)c(OC)c3)ccc21 (stereo not drawn) [Compound 8h, bis(acetoxymethyl) 2,2′-((4-(3′-acetoxy-6′-(butylamino)-3-oxo-3H-spiro[isobenzofuran-1,9′-xanthen]-5-ylcarboxamido)-2-methoxyphenyl)azanediyl)diacetate] | 533 | 511 | 48000 |  |  |  | 3.50 ± 0.07 fold |  | 
5 | CCCN(CCC)c1ccc2c(c1)Oc1cc(OC(C)=O)ccc1C21OC(=O)c2cc(C(=O)Nc3ccc(N(CC(=O)OCOC(C)=O)CC(=O)OCOC(C)=O)c(OC)c3)ccc21 (stereo not drawn) [Compound 8e, bis(acetoxymethyl) 2,2′-((4-(3′-acetoxy-6′-(dipropylamino)-3-oxo-3H-spiro[isobenzofuran-1,9′-xanthen]-5-ylcarboxamido)-2-methoxyphenyl)azanediyl)diacetate] | 553 | 527 | 66000 |  |  |  | 2.94 ± 0.08 fold |  | 
6 | COc1cc(NC(=O)c2ccc3c(c2)C(=O)OC32c3ccc(OC(C)=O)cc3Oc3cc(N4CC(F)(F)C4)ccc32)ccc1N(CC(=O)OCOC(C)=O)CC(=O)OCOC(C)=O (stereo not drawn) [Compound 8k, bis(acetoxymethyl) 2,2′-((4-(3′-acetoxy-6′-(3,3-difluoroazetidin-1-yl)-3-oxo-3H-spiro[isobenzofuran-1,9′-xanthen]-5-ylcarboxamido)-2-methoxyphenyl)azanediyl)diacetate] | 530 | 506 | 66000 |  |  |  | 2.02 ± 0.04 fold |  | almost half the response to Tl^+
7 | COc1cc(NC(=O)c2ccc3c(c2)C(=O)OC32c3ccc(OC(C)=O)cc3Oc3cc(N4CCC4)ccc32)ccc1N(CC(=O)OCOC(C)=O)CC(=O)OCOC(C)=O (stereo not drawn) [Compound 8j, bis(acetoxymethyl) 2,2′-((4-(3′-acetoxy-6′-(azetidin-1-yl)-3-oxo-3H-spiro[isobenzofuran-1,9′-xanthen]-5-ylcarboxamido)-2-methoxyphenyl)azanediyl)diacetate] | 550 | 522 | 56000 |  |  |  | 3.92 ± 0.13 fold |  | 

Source: patent publication US11519859B2, “Rhodol-based thallium sensors for high-throughput screening of potassium channels” (priority 2018, dated 2022)
